In ChEMBL document CHEMBL3758082, “Design, synthesis, and biological evaluation of crenatoside analogues as novel influenza neuraminidase inhibitors” (Eur J Med Chem, 2016):

Assays:
[1] = biological target: Neuraminidase (Influenza A virus) (UniProt B4URF0); assay: Inhibition of Influenza A virus neuraminidase at 1000 ug/ml
[2] = biological target: Neuraminidase (Influenza A virus, UniProt B4URF0); assay: Inhibition of Influenza A virus neuraminidase
Chain of Neuraminidase (B4URF0 whole entry): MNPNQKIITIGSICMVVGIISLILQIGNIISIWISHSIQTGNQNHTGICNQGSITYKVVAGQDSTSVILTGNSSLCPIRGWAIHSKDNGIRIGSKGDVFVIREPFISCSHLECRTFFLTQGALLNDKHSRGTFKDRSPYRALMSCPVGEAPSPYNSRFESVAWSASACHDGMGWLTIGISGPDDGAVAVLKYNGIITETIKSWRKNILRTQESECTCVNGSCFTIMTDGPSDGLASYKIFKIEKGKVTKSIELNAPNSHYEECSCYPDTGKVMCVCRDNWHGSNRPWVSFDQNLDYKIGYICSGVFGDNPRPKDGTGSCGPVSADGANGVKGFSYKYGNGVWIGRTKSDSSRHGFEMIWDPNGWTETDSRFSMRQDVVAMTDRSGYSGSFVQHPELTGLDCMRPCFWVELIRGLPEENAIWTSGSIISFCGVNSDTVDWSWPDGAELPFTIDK

Chain of Neuraminidase (Influenza A virus) (B4URF0 as listed by the source): as the sequence (B4URF0 whole entry) above

## O=C(/C=C/c1ccccc1)O[C@H]1[C@H](O)[C@@H](CO)O[C@H]2OC[C@H](c3ccccc3)O[C@@H]21
[1]
  inhibition: 17.6%

## CSCC[C@@H](N)C(=O)O[C@H]1[C@H](O)[C@@H](CO)O[C@H]2OC[C@H](c3ccccc3)O[C@@H]21
[1]
  inhibition: 88.8%
[2]
  IC50: 216 µM

## O=C(/C=C/c1ccc(O)c(O)c1)O[C@H]1[C@H](O)[C@@H](CO)O[C@H]2OC[C@@H](c3ccccc3)O[C@@H]21
[1]
  inhibition: 97.4%
[2]
  IC50: 62.5 µM

## C[C@@H]1O[C@@H](O[C@H]2[C@H](O)[C@@H](CO)O[C@H]3OC[C@@H](c4ccccc4)O[C@@H]32)[C@H](O)[C@H](O)[C@H]1O
[1]
  inhibition: 11.7%

## COc1cccc(/C=C/C(=O)O[C@H]2[C@H](O)[C@@H](CO)O[C@H]3OC[C@H](c4ccccc4)O[C@@H]32)c1
[1]
  inhibition: 91.2%
[2]
  IC50: 97 µM

## C[C@@H]1O[C@@H](O[C@H]2[C@H](O)[C@@H](CO)O[C@H]3OC[C@H](c4ccccc4)O[C@@H]32)[C@H](O)[C@H](O)[C@H]1O
[1]
  inhibition: 8.28%

## O=C(/C=C/c1ccc(O)cc1)O[C@H]1[C@H](O)[C@@H](CO)O[C@H]2OC[C@@H](c3ccccc3)O[C@@H]21
[1]
  inhibition: 66.7%
[2]
  IC50: 182 µM

## O=C(/C=C/c1ccc(O)c(O)c1)O[C@H]1[C@H](O)[C@@H](CO)O[C@H]2OC[C@H](c3ccccc3)O[C@@H]21
[1]
  inhibition: 94.1%
[2]
  IC50: 67.3 µM

## O=C(/C=C/c1ccc(O)cc1)O[C@H]1[C@H](O)[C@@H](CO)O[C@H]2OC[C@H](c3ccccc3)O[C@@H]21
[1]
  inhibition: 65%
[2]
  IC50: 229 µM

## O=C(/C=C/c1ccccc1)O[C@H]1[C@H](O)[C@@H](CO)O[C@H]2OC[C@@H](c3ccccc3)O[C@@H]21
[1]
  inhibition: 29.8%

## CSCC[C@@H](N)C(=O)O[C@H]1[C@H](O)[C@@H](CO)O[C@H]2OC[C@@H](c3ccccc3)O[C@@H]21
[1]
  inhibition: 90.3%
[2]
  IC50: 189 µM

## COc1cccc(/C=C/C(=O)O[C@H]2[C@H](O)[C@@H](CO)O[C@H]3OC[C@@H](c4ccccc4)O[C@@H]32)c1
[1]
  inhibition: 95.9%
[2]
  IC50: 67 µM

## C[C@@H]1O[C@@H](O[C@H]2[C@H](O)[C@@H](COC(=O)/C=C/c3ccc(O)c(O)c3)O[C@H]3OC[C@H](c4ccc(O)c(O)c4)O[C@@H]32)[C@H](O)[C@H](O)[C@H]1O [ISOCRENATOSIDE]
[1]
  inhibition: 86.3%
[2]
  IC50: 186 µM

## C[C@@H]1O[C@@H](O[C@@H]2[C@H]3O[C@@H](c4ccc(O)c(O)c4)CO[C@@H]3O[C@H](CO)[C@H]2OC(=O)/C=C/c2ccc(O)c(O)c2)[C@H](O)[C@H](O)[C@H]1O [CRENATOSIDE]
[1]
  inhibition: 89.2%
[2]
  IC50: 144 µM

## CC(C)[C@@H](N)C(=O)O[C@H]1[C@H](O)[C@@H](CO)O[C@H]2OC[C@@H](c3ccccc3)O[C@@H]21
[1]
  inhibition: 25.3%

## OC[C@H]1O[C@H]2OC[C@H](c3ccccc3)O[C@@H]2[C@@H](O)[C@@H]1O
[1]
  inhibition: 3.9%

## CC(C)[C@@H](N)C(=O)O[C@H]1[C@H](O)[C@@H](CO)O[C@H]2OC[C@H](c3ccccc3)O[C@@H]21
[1]
  inhibition: 16.6%

## OC[C@H]1O[C@H]2OC[C@@H](c3ccccc3)O[C@@H]2[C@@H](O)[C@@H]1O
[1]
  inhibition: 16.8%
